# Reference: US20220031680A1, “Donecopride As Neuroprotective Agent In the Treatment of Neurodegenerative Diseases” (priority 2018, published 2022)
# Legend:
# [1] = system: rat primary GABAergic neurons under a growth factor deprivation; assay: Survival of GABAergic neurons after growth factor deprivation; format: cell-based; conditions: BDNF and GDNF deprivation 96 h
# Procedure: The aim of this study was to investigate the neuroprotective effect of MR33583 (at 4 concentrations) in MSN of striatum survival after growth factor deprivation (BDNF and GDNF deprivation), an in vitro model of Huntington's disease.
# Rat MSN of striatum were cultured as described by Ivkovic et al. (1999) J. Neurosci. 19:5409-5419 and Schinelli et al. (1988) J. Neurochem. 50:1900-1907. Briefly pregnant female rats of 15 days gestation were killed using a deep anesthesia with CO2 chamber and a cervical dislocation. Fetuses were collected and immediately placed in ice-cold L15 Leibovitz medium with a 2% penicillin (10,000 U/ml) and streptomycin (10 mg/ml) solution (PS) and 1% bovine serum albumin (BSA). Only a restricted ventral portion of the mesencephalic flexure was used for cell preparation as this is the region of the developing brain rich in MSN cells. These areas were treated for 20 min at 37° C. with a trypsin-EDTA solution at a final concentration of 0.05% trypsin and 0.02% EDTA. […] Viable cells were counted in a Neubauer cytometer using the trypan blue exclusion test. […]
# (§1) Test compounds were tested in 96-well plate (n=6 culture wells per condition). The following conditions were assessed: […]
# The following read-out was investigated: Analysis of MSNs survival (GAD67 staining, number of GABAergic neurons).
# [2] = system: TDP-43; assay: Cytoplasmic TDP-43 in spinal motor neurons after glutamate injury; format: cell-based, rat; conditions: glutamate 5 μM 20 min; highest dose
# Procedure: Rat spinal cord motor neurons (MNs) were cultured as described by Martinou et al. (1992) Neuron. 8:737-744 and Wang et al. (2013) Hum. Mol. Genet. 22:4706-4719. Briefly, pregnant female rats of 14 days gestation (Rats Wistar; Janvier Labs France) were killed using a deep anesthesia with CO2 chamber and a cervical dislocation. Then, fetuses were removed from the uterus and immediately placed in ice-cold L15 Leibovitz medium with a 2% penicillin (10,000 U/ml) and streptomycin (10 mg/ml) solution (PS) and 1% bovine serum albumin (BSA).
# Spinal cords were treated for 20 min at 37° C. with a trypsin-EDTA solution at a final concentration of 0.05% trypsin and 0.02% EDTA. […] Viable cells were counted in a Neubauer cytometer, using the trypan blue exclusion test. […]
# as §1
# The following endpoints were automatically assessed: • Analysis of neuron survival (MAP-2 staining, number of neurons), • Analysis of neurite network (MAP-2 staining, total neurite length in μm), • Analysis of neurite network/neurons (neuronal network/number of MAP2 neurons), • Analysis of cytoplasmic TDP-43 in MAP-2 positive neurons (overlapping between MAP-2 and cytoplasmic TDP-43 in μm^2).
structure (smiles),measurement,setting,value
COc1cc(N)c(F)cc1C(=O)CCC1CCN(CC2CCCC2)CC1 [MR33583],concentration with significant neuroprotective effect (survival of GABAergic neurons),[1],50 nM
same,dose reducing the signal of TDP43 in the cytoplasm of spinal motor neurons,[2],100 nM
